Reference: patent US6280768A, “Berberine alkaloids as a treatment for chronic protozoally induced diarrhea” (PRM Pharmaceuticals, Inc., priority 1997, dated 2001)
Like-named read-outs stand apart in the source and are kept apart here.

Tests used:
[1] = test system: E.histolytica; test: In vitro growth inhibition of Entamoeba histolytica; type: cell-based; conditions: for activity at 30 µg/mL: 30 μg/ml; for activity at 125 µg/mL: 125 μg/ml; for activity at 500 µg/mL: 500 μg/ml; for activity at 1000 µg/mL: 1000 μg/ml
Excerpt: (§1) The protozoa tested were established strains of 3 extracellular protozoan parasites; (1) Giardia lamblia, (2) Trichomonas vaginalis, (3) Entamoeba histolytica, and the intracellular microsporidian parasite (4) Encephalitozoon intestinalis.
(§2) Culture conditions and media for (1)-(3) and methods for assaying drug susceptibility were as described in Katiyar, S K and Edlind T D, Enhanced Antiparasitic Activity of Lipophilic Tetracyclines: Role of Uptake, Antimicrob. Agents Chemother., vol. 35:2198-2202 (1991), incorporated herein by reference.
(§3) Cultures of the extracellular parasites were started from frozen stocks and passaged several times over a 2-3 week period to ensure viability, maximal growth rate, and lack of contamination. On day 1 of the assay, log phase cultures were diluted to 5×10^4 cells/ml in fresh medium and aliquoted to 2 ml vials, which were filled to maintain anaerobic conditions. The berberine was dissolved and diluted in water to various concentrations and then added to the cultures. "negative controls" received the vehicle alone.
(§4) Cultures were incubated at 37° C. with slow rotation. After 48 hours (for T. vaginalis and G. lamblia) and 72 hours (for E. histolytica), cell numbers were determined using a hemocytometer. The concentration of compound inhibiting growth 50% (IC50) relative to controls was estimated from dose response plots. The assays were repeated at least twice.
(§5) Initially, the berberine was tested over a wide range of concentrations (0.1, 1, 10, 100 and 1000 μg/ml).

[2] = test system: E. intestinalis; test: In vitro growth (spore numbers) of E. intestinalis in infected Vero cells; type: cell-based, Encephalitozoon intestinalis
Excerpt: as §1
Cultures of E. intestinalis infected African green monkey kidney (Vero) cells were kindly provided by G. S. Visvesvara, CDC, Atlanta, Ga. The E. intestinalis was originally isolated from the urine of an AIDS patient (J. Clin. Microbiol. 33:930-936, 1995).
Cells were grown in T25 flasks at 37° C. in a humidified CO2 incubator, and subcultured when confluent (every 3-4 days). The medium was MEM supplemented with Earle's salts, L-glutamine, 5% heat-inactivated fetal bovine serum, fungizone (2 μg/ml) and gentamicin (50 μg/ml). E. intestinalis spores were prepared by centrifugation of infected cell medium (3-4 days old) at 2000×g for 15 min, followed by suspension in fresh medium to give 1-20×10^4 spores/ml (determined with a hemocytometer). […]
Every 72-96 h after infection, the medium was completely removed, discarded, and replaced with fresh medium plus berberine. The medium from the 4th change (2-3 weeks post infection) was collected into tubes and spore numbers were determined in a hemocytometer. […] Consequently, spore numbers after 3-4 medium changes provided a quantitative measure of the effects of berberine on microsporidia growth.

[3] = test system: G.lamblia; test: In vitro growth inhibition of Giardia lamblia; type: cell-based; conditions: Giardia duodenalis; for activity at 30 µg/mL / activity at 62 µg/mL / activity at 125 µg/mL / activity at 250 µg/mL / activity at 500 µg/mL / activity at 1000 µg/mL: 48 h; for activity at 30 µg/mL: 30 μg/ml; for activity at 62 µg/mL: 62 μg/ml; for activity at 125 µg/mL: 125 μg/ml; for activity at 250 µg/mL: 250 μg/ml; for activity at 500 µg/mL: 500 μg/ml; for activity at 1000 µg/mL: 1000 μg/ml
Excerpt: as §1, §2, §3, §4, §5

[4] = test system: T.vaginalis; test: In vitro growth inhibition of Trichomonas vaginalis; type: cell-based; conditions: for activity at 30 µg/mL / activity at 62 µg/mL / activity at 125 µg/mL / activity at 250 µg/mL / activity at 500 µg/mL / activity at 1000 µg/mL: 48 h; for activity at 30 µg/mL: 30 μg/ml; for activity at 62 µg/mL: 62 μg/ml; for activity at 125 µg/mL: 125 μg/ml; for activity at 250 µg/mL: 250 μg/ml; for activity at 500 µg/mL: 500 μg/ml
Excerpt: as §1, §2, §3, §4, §5

[5] = oral, high doses; cited from earlier work
[6] = test system: diarrhea; test: Prophylactic use of berberines in HIV infected patients (Example 7); type: in vivo, human; conditions: low dose of Example 2, two months, 25 patients
Description: Twenty five (25) HIV infected patients, 18 years of age or older, not presenting with chronic diarrhea, are selected. Blood specimens are evaluated to confirm that each patient is HIV seropositive.
Each of the twenty five (25) patients receives a treatment with berberine according to the low dose of Example 2 for a period of two months.

[7] = test system: microsporidia; test: Protoberberines in a hamster animal model of microsporidial chronic diarrhea (Example 5); type: in vivo; conditions: 52 mg/kg/day oral; for condition of the hamsters / diarrhea: after 10 days; for presence of microsporidia in intestinal biopsy: following therapy
Description: (§6) Ten hamsters suffering from chronic diarrhea caused by microsporidia are randomized into two groups of 5 hamsters. One group receives the protoberberine palmatine and the second group receives the protoberberine dihydroberberine. The protoberberines are administered orally at a dose rate of 52 mg/kg/day for ten (10) days.

[8] = test system: microsporidia; test: Protoberberines in a mouse animal model of microsporidial chronic diarrhea (Example 6); type: in vivo; conditions: 52 mg/kg/day oral; for condition of the mice / diarrhea: after 10 days; for presence of microsporidia in intestinal biopsy: following therapy
Description: as §6, with “mice” for “hamsters”, “mice.” for “hamsters.”, “jatrorrhizine.” for “dihydroberberine.”

[9] = test system: cryptosporidia; conditions: cited from earlier work
[10] = test system: Cryptosporidium parvum; conditions: in vivo; cited from earlier work
[11] = growth, 48 hours, estimated from dose response plots

## COc1ccc2cc3[n+](cc2c1OC)CCc1cc2c(cc1-3)OCO2.Cl [berberine hydrochloride, 5,6-Dihydro-9,10-dimethoxybenzo[g]-1,3-benzodioxolo[5,6-a]quinolizinium hydrochloride]
[1]; 72 h, Exp. 1
  activity at 30 µg/mL: 102%
  activity at 125 µg/mL: 100%
  activity at 500 µg/mL: 100%
  activity at 1000 µg/mL: 72%
[1]; 72 h, Exp. 2
  activity at 30 µg/mL: 101%
  activity at 125 µg/mL: 101%
  activity at 500 µg/mL: 96%
  activity at 1000 µg/mL: 76%
[1]; 72 h, 62 μg/ml, Exp. 2
  activity at 62 µg/mL: 90%
[1]; 72 h, 250 μg/ml, Exp. 2
  activity at 250 µg/mL: 101%
[1]; growth, 72 hours, estimated from dose response plots
  IC50: > 1000 µg/mL
[2]
  activity against the microsporidium E. intestinalis: showed activity against the microsporidium E. intestinalis
[3]; Exp. 1
  activity at 30 µg/mL: 99%
  activity at 62 µg/mL: 89%
  activity at 125 µg/mL: 79%
  activity at 250 µg/mL: 63%
  activity at 500 µg/mL: 40%
  activity at 1000 µg/mL: 9%
[3]; Exp. 2
  activity at 30 µg/mL: 97%
  activity at 62 µg/mL: 85%
  activity at 125 µg/mL: 69%
  activity at 250 µg/mL: 59%
  activity at 500 µg/mL: 44%
  activity at 1000 µg/mL: 20%
[3]; Exp. 3
  activity at 62 µg/mL: 88%
  activity at 125 µg/mL: 75%
  activity at 250 µg/mL: 52%
  activity at 500 µg/mL: 32%
  activity at 1000 µg/mL: 5%
[3]; [11]
  IC50: 350 µg/mL
[4]; Exp. 1
  activity at 30 µg/mL: 93%
  activity at 62 µg/mL: 90%
  activity at 125 µg/mL: 59%
  activity at 250 µg/mL: 20%
  activity at 500 µg/mL: 2%
[4]; Exp. 2
  activity at 30 µg/mL: 99%
  activity at 62 µg/mL: 98%
  activity at 125 µg/mL: 60%
  activity at 250 µg/mL: 28%
  activity at 500 µg/mL: 3%
[4]; Exp. 3
  activity at 30 µg/mL: 96%
  activity at 62 µg/mL: 98%
  activity at 125 µg/mL: 60%
  activity at 250 µg/mL: 45%
  activity at 500 µg/mL: 22%
[4]; 1000 μg/ml, Exp. 1, read-out: % growth
  activity at 1000 µg/mL: 1%
[4]; 1000 μg/ml, Exp. 2, read-out: % growth
  activity at 1000 µg/mL: 1%
[4]; read-out: % growth, 1000 μg/ml, Exp. 3
  activity at 1000 µg/mL: 6.8%
[4]; [11]
  IC50: 170 µg/mL

## COc1ccc2cc3[n+](cc2c1OC)CCc1cc2c(cc1-3)OCO2 [berberine, 5,6-Dihydro-9,10-dimethoxybenzo[g]-1,3-benzodioxolo[5,6-a]quinolizinium]
[5]
  toxicity: nontoxic at high doses
[6]
  tolerability / adverse reactions: all of the patients tolerate the treatment well with no or minimal adverse reactions

## COc1ccc2c(c1OC)CN1CCc3cc4c(cc3C1=C2)OCO4 [dihydroberberine]
[7]
  condition of the hamsters: improved
  diarrhea: none of the hamsters have diarrhea
  presence of microsporidia in intestinal biopsy: does not reveal the presence of microsporidia

## COc1cc2c(cc1O)CC[n+]1cc3c(OC)c(OC)ccc3cc1-2 [jatrorrhizine]
[8]
  condition of the mice: improved
  diarrhea: none of the mice have diarrhea
  presence of microsporidia in intestinal biopsy: does not reveal the presence of microsporidia

## C[C@@H](O)[C@@H]1NC(=O)[C@H](CCCCN)NC(=O)[C@@H](Cc2c[nH]c3ccccc23)NC(=O)[C@H](Cc2ccccc2)NC(=O)[C@@H](NC(=O)[C@H](N)Cc2ccccc2)CSSC[C@@H](C(=O)N[C@H](CO)[C@@H](C)O)NC1=O [octreotide]
[9]; AIDS patients
  control of gastrointestinal secretion: control the voluminous gastrointestinal secretion
[9]; following cessation of treatment
  return of diarrhea: diarrhea promptly returns

## COc1cc2c(cc1OC)-c1cc3ccc(OC)c(OC)c3c[n+]1CC2 [palmatine]
[8]
  condition of the mice: improved
  diarrhea: none of the mice have diarrhea
  presence of microsporidia in intestinal biopsy: does not reveal the presence of microsporidia
[7]
  condition of the hamsters: improved
  diarrhea: none of the hamsters have diarrhea
  presence of microsporidia in intestinal biopsy: does not reveal the presence of microsporidia

## NC[C@@H]1O[C@H](O[C@H]2[C@@H](O)[C@H](O[C@@H]3[C@@H](O)[C@H](N)C[C@H](N)[C@H]3O[C@H]3O[C@H](CO)[C@@H](O)[C@H](O)[C@H]3N)O[C@@H]2CO)[C@H](N)[C@@H](O)[C@@H]1O [paromomycin]
[10]
  relapse after cessation of treatment: common
